Results from ChEMBL document CHEMBL3885861, “Open TG-GATES”.

Species on record: Rattus norvegicus
Assay: Open TG-GATES - Regimen: Single
Assay type: toxicity, organism-based, Sprague-Dawley
Design: regimen Single, gender Male, age 6 weeks
Details: in vivo, po, route gavage; for APTT / Bas / Eos / Fbg / Hb / Ht / Lym / MCH / MCHC / MCV / Mono / Neu / PT / Plat / RBC / Ret / WBC: tissue Blood; for KIDNEY_L / KIDNEY_R / KIDNEY_TOTAL: tissue Kidney; for LIVER: tissue Liver; for ALP / ALT / AST / BUN / CRE / DBIL / GLC / K / LDH / Na / PL / RALB / TBIL / TC / TG / TP / gamma-GTP: tissue Plasma
[1] = 150 mg/kg, 3 h, dose level Middle
[2] = 150 mg/kg, 6 h, dose level Middle
[3] = 150 mg/kg, 9 h, dose level Middle
[4] = 150 mg/kg, 24 h, dose level Middle
[5] = 450 mg/kg, 3 h, dose level High
[6] = 450 mg/kg, 6 h, dose level High
[7] = 450 mg/kg, 9 h, dose level High
[8] = 450 mg/kg, 24 h, dose level High

SMILES: CC(CCc1ccccc1)NCC(O)c1ccc(O)c(C(N)=O)c1 (configuration not stated) [LABETALOL]
- TERMINAL_BW [1]: 215.7 g
- APTT [1]: 16.5 s
- Bas [1]: 0%
- Eos [1]: 0.8%
- Fbg [1]: 263.6 mg/dL
- Hb [1]: 12.4 g/dL
- Ht [1]: 36.2%
- Lym [1]: 77%
- MCH [1]: 21.9 pg
- MCHC [1]: 34.1%
- MCV [1]: 64.2 fL
- Mono [1]: 3%
- Neu [1]: 18.6%
- PT [1]: 13.3 s
- Plat [1]: 115.1 x10_4/uL
- RBC [1]: 564.6 x10_4/ul
- Ret [1]: 8.3%
- WBC [1]: 77.1 x10_2/uL
- KIDNEY_L [1]: 1 g
- KIDNEY_R [1]: 0.9 g
- KIDNEY_TOTAL [1]: 1.9 g
- LIVER [1]: 9.4 g
- ALP [1]: 1401.4 IU/L
- ALT [1]: 46 IU/L
- AST [1]: 73.6 IU/L
- BUN [1]: 12 mg/dL
- CRE [1]: 0.2 mg/dL
- DBIL [1]: 0.01 mg/dL
- GLC [1]: 207.2 mg/dL
- K [1]: 3.7 meq/L
- LDH [1]: 48.6 IU/L
- Na [1]: 142.2 meq/L
- PL [1]: 125.2 mg/dL
- RALB [1]: 2.5 g/dL
- TBIL [1]: 0.042 mg/dL
- TC [1]: 70 mg/dL
- TG [1]: 49.4 mg/dL
- TP [1]: 5.2 g/dL
- gamma-GTP [1]: 1.4 IU/L
- TERMINAL_BW [2]: 215.9 g
- APTT [2]: 15.9 s
- Bas [2]: 0%
- Eos [2]: 1%
- Fbg [2]: 269.8 mg/dL
- Hb [2]: 12.5 g/dL
- Ht [2]: 36.5%
- Lym [2]: 74.6%
- MCH [2]: 21.1 pg
- MCHC [2]: 34.3%
- MCV [2]: 61.7 fL
- Mono [2]: 3.6%
- Neu [2]: 20.2%
- PT [2]: 13.1 s
- Plat [2]: 106.3 x10_4/uL
- RBC [2]: 593.6 x10_4/ul
- Ret [2]: 7.9%
- WBC [2]: 81 x10_2/uL
- KIDNEY_L [2]: 0.9 g
- KIDNEY_R [2]: 0.9 g
- KIDNEY_TOTAL [2]: 1.8 g
- LIVER [2]: 8.9 g
- ALP [2]: 1487.8 IU/L
- ALT [2]: 39.4 IU/L
- AST [2]: 71 IU/L
- BUN [2]: 9.4 mg/dL
- CRE [2]: 0.2 mg/dL
- DBIL [2]: 0.01 mg/dL
- GLC [2]: 199.4 mg/dL
- K [2]: 4.2 meq/L
- LDH [2]: 44.8 IU/L
- Na [2]: 142.8 meq/L
- PL [2]: 126 mg/dL
- RALB [2]: 2.4 g/dL
- TBIL [2]: 0.04 mg/dL
- TC [2]: 73.2 mg/dL
- TG [2]: 41.8 mg/dL
- TP [2]: 5.1 g/dL
- gamma-GTP [2]: 1 IU/L
- TERMINAL_BW [3]: 213.9 g
- APTT [3]: 15.6 s
- Bas [3]: 0%
- Eos [3]: 0.8%
- Fbg [3]: 287.8 mg/dL
- Hb [3]: 12.5 g/dL
- Ht [3]: 37.1%
- Lym [3]: 77.6%
- MCH [3]: 21.8 pg
- MCHC [3]: 33.7%
- MCV [3]: 64.8 fL
- Mono [3]: 1.8%
- Neu [3]: 19.6%
- PT [3]: 13.2 s
- Plat [3]: 106.5 x10_4/uL
- RBC [3]: 572.4 x10_4/ul
- Ret [3]: 8.2%
- WBC [3]: 82.4 x10_2/uL
- KIDNEY_L [3]: 0.9 g
- KIDNEY_R [3]: 0.9 g
- KIDNEY_TOTAL [3]: 1.9 g
- LIVER [3]: 8.7 g
- ALP [3]: 1516.4 IU/L
- ALT [3]: 41.4 IU/L
- AST [3]: 68.4 IU/L
- BUN [3]: 10.2 mg/dL
- CRE [3]: 0.2 mg/dL
- DBIL [3]: 0.01 mg/dL
- GLC [3]: 185.4 mg/dL
- K [3]: 3.9 meq/L
- LDH [3]: 42.4 IU/L
- Na [3]: 144.6 meq/L
- PL [3]: 136.6 mg/dL
- RALB [3]: 2.6 g/dL
- TBIL [3]: 0.036 mg/dL
- TC [3]: 77.8 mg/dL
- TG [3]: 56.6 mg/dL
- TP [3]: 5.5 g/dL
- gamma-GTP [3]: 1.2 IU/L
- TERMINAL_BW [4]: 223.2 g
- APTT [4]: 14.8 s
- Bas [4]: 0%
- Eos [4]: 1%
- Fbg [4]: 345.2 mg/dL
- Hb [4]: 13.1 g/dL
- Ht [4]: 38.4%
- Lym [4]: 71.6%
- MCH [4]: 21 pg
- MCHC [4]: 34.2%
- MCV [4]: 61.4 fL
- Mono [4]: 3.8%
- Neu [4]: 23%
- PT [4]: 12.7 s
- Plat [4]: 116.5 x10_4/uL
- RBC [4]: 625.6 x10_4/ul
- Ret [4]: 8.2%
- WBC [4]: 77.1 x10_2/uL
- KIDNEY_L [4]: 0.9 g
- KIDNEY_R [4]: 0.9 g
- KIDNEY_TOTAL [4]: 1.8 g
- LIVER [4]: 10.1 g
- ALP [4]: 1738.6 IU/L
- ALT [4]: 45.6 IU/L
- AST [4]: 76 IU/L
- BUN [4]: 16.6 mg/dL
- CRE [4]: 0.2 mg/dL
- DBIL [4]: 0.016 mg/dL
- GLC [4]: 180.6 mg/dL
- K [4]: 4.3 meq/L
- LDH [4]: 72.6 IU/L
- Na [4]: 143.2 meq/L
- PL [4]: 159.6 mg/dL
- RALB [4]: 2.6 g/dL
- TBIL [4]: 0.038 mg/dL
- TC [4]: 92 mg/dL
- TG [4]: 96.4 mg/dL
- TP [4]: 5.7 g/dL
- gamma-GTP [4]: 1.2 IU/L
- TERMINAL_BW [5]: 212.9 g
- APTT [5]: 17.6 s
- Bas [5]: 0%
- Eos [5]: 1%
- Fbg [5]: 255.2 mg/dL
- Hb [5]: 12.2 g/dL
- Ht [5]: 35.8%
- Lym [5]: 76%
- MCH [5]: 21.5 pg
- MCHC [5]: 34.1%
- MCV [5]: 62.9 fL
- Mono [5]: 3.2%
- Neu [5]: 19.4%
- PT [5]: 13 s
- Plat [5]: 109.9 x10_4/uL
- RBC [5]: 569.4 x10_4/ul
- Ret [5]: 8.1%
- WBC [5]: 70.3 x10_2/uL
- KIDNEY_L [5]: 1 g
- KIDNEY_R [5]: 0.9 g
- KIDNEY_TOTAL [5]: 1.9 g
- LIVER [5]: 9.4 g
- ALP [5]: 1740.2 IU/L
- ALT [5]: 47 IU/L
- AST [5]: 73 IU/L
- BUN [5]: 13.2 mg/dL
- CRE [5]: 0.2 mg/dL
- DBIL [5]: 0.01 mg/dL
- GLC [5]: 198.4 mg/dL
- K [5]: 3.9 meq/L
- LDH [5]: 56.8 IU/L
- Na [5]: 142.4 meq/L
- PL [5]: 124 mg/dL
- RALB [5]: 2.4 g/dL
- TBIL [5]: 0.04 mg/dL
- TC [5]: 68.4 mg/dL
- TG [5]: 39.2 mg/dL
- TP [5]: 5.2 g/dL
- gamma-GTP [5]: 1.4 IU/L
- TERMINAL_BW [6]: 216.2 g
- APTT [6]: 16.6 s
- Bas [6]: 0%
- Eos [6]: 1%
- Fbg [6]: 288.6 mg/dL
- Hb [6]: 12.2 g/dL
- Ht [6]: 36.2%
- Lym [6]: 75.4%
- MCH [6]: 21.9 pg
- MCHC [6]: 33.8%
- MCV [6]: 64.8 fL
- Mono [6]: 2.6%
- Neu [6]: 20.4%
- PT [6]: 12.6 s
- Plat [6]: 112.1 x10_4/uL
- RBC [6]: 561 x10_4/ul
- Ret [6]: 8.2%
- WBC [6]: 89.2 x10_2/uL
- KIDNEY_L [6]: 1 g
- KIDNEY_R [6]: 0.9 g
- KIDNEY_TOTAL [6]: 1.9 g
- LIVER [6]: 9 g
- ALP [6]: 1401.4 IU/L
- ALT [6]: 42.6 IU/L
- AST [6]: 69.8 IU/L
- BUN [6]: 10 mg/dL
- CRE [6]: 0.2 mg/dL
- DBIL [6]: 0.006 mg/dL
- GLC [6]: 188.8 mg/dL
- K [6]: 4.1 meq/L
- LDH [6]: 53.4 IU/L
- Na [6]: 143.4 meq/L
- PL [6]: 131 mg/dL
- RALB [6]: 2.5 g/dL
- TBIL [6]: 0.038 mg/dL
- TC [6]: 78 mg/dL
- TG [6]: 23.2 mg/dL
- TP [6]: 5.2 g/dL
- gamma-GTP [6]: 1 IU/L
- TERMINAL_BW [7]: 218.2 g
- APTT [7]: 16 s
- Bas [7]: 0%
- Eos [7]: 0.8%
- Fbg [7]: 285 mg/dL
- Hb [7]: 12.8 g/dL
- Ht [7]: 37.5%
- Lym [7]: 75.4%
- MCH [7]: 22.6 pg
- MCHC [7]: 34.1%
- MCV [7]: 66.1 fL
- Mono [7]: 2%
- Neu [7]: 21.4%
- PT [7]: 12.9 s
- Plat [7]: 98.6 x10_4/uL
- RBC [7]: 567 x10_4/ul
- Ret [7]: 8%
- WBC [7]: 90.3 x10_2/uL
- KIDNEY_L [7]: 0.9 g
- KIDNEY_R [7]: 0.9 g
- KIDNEY_TOTAL [7]: 1.8 g
- LIVER [7]: 8.5 g
- ALP [7]: 1515.4 IU/L
- ALT [7]: 49.6 IU/L
- AST [7]: 71.2 IU/L
- BUN [7]: 9 mg/dL
- CRE [7]: 0.2 mg/dL
- DBIL [7]: 0.01 mg/dL
- GLC [7]: 179 mg/dL
- K [7]: 4.2 meq/L
- LDH [7]: 41.2 IU/L
- Na [7]: 144.2 meq/L
- PL [7]: 135 mg/dL
- RALB [7]: 2.5 g/dL
- TBIL [7]: 0.044 mg/dL
- TC [7]: 78 mg/dL
- TG [7]: 30.6 mg/dL
- TP [7]: 5.2 g/dL
- gamma-GTP [7]: 1 IU/L
- TERMINAL_BW [8]: 219.8 g
- APTT [8]: 15.5 s
- Bas [8]: 0%
- Eos [8]: 1%
- Fbg [8]: 290.8 mg/dL
- Hb [8]: 13 g/dL
- Ht [8]: 38.1%
- Lym [8]: 74%
- MCH [8]: 21.6 pg
- MCHC [8]: 34.2%
- MCV [8]: 62.9 fL
- Mono [8]: 2.6%
- Neu [8]: 22%
- PT [8]: 12.6 s
- Plat [8]: 115.1 x10_4/uL
- RBC [8]: 605.2 x10_4/ul
- Ret [8]: 7.5%
- WBC [8]: 68.4 x10_2/uL
- KIDNEY_L [8]: 1 g
- KIDNEY_R [8]: 0.9 g
- KIDNEY_TOTAL [8]: 1.9 g
- LIVER [8]: 9.6 g
- ALP [8]: 1840.6 IU/L
- ALT [8]: 44 IU/L
- AST [8]: 74 IU/L
- BUN [8]: 17.4 mg/dL
- CRE [8]: 0.2 mg/dL
- DBIL [8]: 0.012 mg/dL
- GLC [8]: 167.8 mg/dL
- K [8]: 4.7 meq/L
- LDH [8]: 55.2 IU/L
- Na [8]: 142.2 meq/L
- PL [8]: 144.8 mg/dL
- RALB [8]: 2.6 g/dL
- TBIL [8]: 0.03 mg/dL
- TC [8]: 88 mg/dL
- TG [8]: 57.8 mg/dL
- TP [8]: 5.6 g/dL
- gamma-GTP [8]: 1.2 IU/L
